Experimental data: patent publication US7589170B1, “Synthesis of cyclic peptides” (priority 1998, dated 2009)
Entries after “also recorded” stand apart in the source; their conditions may differ. Where two headings read alike, the source gives them in different places.

Legend:
[1] = as originally found for the isolate from Stylotella aurantium; cited from earlier work
[2] = system: sympathetic varicosities of the mouse vas deferens; assay: focal extracellular recording of evoked excitatory junction currents (EJC, measure of transmitter release); type: cell-based
Protocol: Each filled circle represents an EJC recorded during 100 minutes. Failure to record an EJC is indicated by filled circles on zero of the y-axis. The lower horizontal line indicates when the mixture of cyclic tetrapeptides (1 μM) was applied to the tissue bathing solution and the upper horizontal line when naloxone (1 μM) was added to the tissue bathing solution. […] Cyclo [Tyr-Arg-Phe-Gly] is SEQ ID NO:42.
Each bar is the average of at least 60 recordings, and the vertical lines show the standard deviation of the mean. […] Cyclo [Tyr-Arg-Phe-Gly] is SEQ ID NO:42.
Demorphin is a opioid heptapeptide isolated from the skin of South American frogs, and has the following sequence; {H-Tyr-D-Ala-Phe-Gly-Tyr-Pro-Ser-NH2; SEQ ID NO:71). The tetrapeptide analogues (H-Tyr-D-Ala-Phe-Gly-NH-Y; SEQ ID NO:29) are potent analgesics when administered by intracerebroventricular injection. In Example 3 we synthesised the cyclic tetrapeptides cyclo[Tyr-Arg-Phe-Gly] (SEQ ID NO:42) and cyclo[Tyr-Arg-D-Phe-Gly] (SEQ ID NO:42) designated WP 152 using our combination strategies.

[3] = the molecule shown is the open-chain precursor, amide bond, 15-membered ring
[4] = stability to heating in DMSO; type: physicochemical; settings: 20 h at 70° C. in DMSO
[5] = stability to hydrolysis in aqueous buffer at pH 9; type: physicochemical
[6] = from H-(Hnb)Tyr-Arg-(Hnb)Phe-Ala-OH, amide bond, 12-membered ring
[7] = amide bond, 21-membered ring, BOP/2,6-lutidine, resin, -10.0 °C, with chain assembly
[8] = amide bond, 16-membered ring, HATU/DIEA, DMF, resin, with chain assembly
[9] = amide bond, DIEA, DMF, resin, with chain assembly

In the case of CCC(C)[C@@H]1NC(=O)[C@H](C)NC(=O)C(CC(C)C)NC(=O)[C@H](CO)NC(=O)C(CC(N)=O)NC(=O)[C@H](Cc2ccccc2)NC(=O)[C@@H]2CCCN2C1=O (stereo in doubt) [stylostatin, Cyclo-(Pro-Phe-Asn-Ser-Leu-Ala-Ile)], the cytotoxicity [1] is listed as “highly cytotoxic”.
With CC[C@H](C)[C@@H]1NC(=O)[C@H](C)NC(=O)[C@H](CC(C)C)NC(=O)[C@H](CO)NC(=O)[C@H](CC(N)=O)NC(=O)[C@H](Cc2ccccc2)NC(=O)[C@@H]2CCCN2C1=O [Cyclo-(Pro-Phe-Asn-Ser-Leu-Ala-Ile)] the ring closure, yield after HPLC (from H-Asn-Ser-Leu-Ala-Ile-Pro-Phe-OH, amide bond, 21-membered ring, BOP/DIPEA, DMF, 1.0 mM, -10.0 °C) was 48%.
Work on N=C(N)NCCC[C@H]1C(=O)N[C@@H](Cc2ccccc2)C(=O)NCC(=O)N(Cc2c(O)cccc2[N+](=O)[O-])[C@@H](Cc2ccc(O)cc2)C(=O)N1Cc1c(O)cccc1[N+](=O)[O-] [Cyclo-[(Hnb)Tyr-(Hnb)Arg-Phe-Gly]] yielded a ring closure, yield after HPLC (from H-(Hnb)Tyr-(Hnb)Arg-Phe-Gly-OH?, amide bond, 12-membered ring, BOP/DIEA, DMF, 1.1 mM, 25.0 °C) of 61%.
For C[C@@H]1NC(=O)[C@H](Cc2ccccc2)N(Cc2c(O)cccc2[N+](=O)[O-])C(=O)[C@H](CCCNC(=N)N)NC(=O)[C@H](Cc2ccc(O)cc2)N(Cc2c(O)cccc2[N+](=O)[O-])C1=O [Cyclo-[(Hnb)Tyr-Arg-(Hnb)Phe-Ala]], the ring closure, yield after HPLC (from H-(Hnb)Tyr-Arg-(Hnb)Phe-Ala-OH?, amide bond, 12-membered ring) was 60%.
Work on CC(C)C[C@@H]1NC(=O)[C@H](Cc2ccccc2)NC(=O)[C@H](C)N(Cc2cc([N+](=O)[O-])ccc2O)C(=O)[C@H](C)NC(=O)[C@@H]2CCCN2C1=O [Cyclo-[N-(5-nitro-2-hydroxybenzyl)-Ala-Phe-Leu-Pro-Ala]] yielded a ring closure, yield after HPLC (from H-(5-nitro-2-hydroxybenzyl)Ala-Phe-Leu-Pro-Ala-OH, amide bond, 15-membered ring, BOP/DIEA, DMF, 1.0 mM, 25.0 °C) of 51%.
Compound CC(C)C[C@@H]1NC(=O)[C@H](Cc2ccccc2)NC(=O)[C@H](C)N(Cc2c(O)cccc2[N+](=O)[O-])C(=O)[C@H](C)NC(=O)[C@@H]2CCCN2C1=O [Cyclo-[N-(6-nitro-2-hydroxybenzyl)-Ala-Phe-Leu-Pro-Ala]] has a ring closure, yield after HPLC (from H-(6-nitro-2-hydroxybenzyl)Ala-Phe-Leu-Pro-Ala-OH, amide bond, 15-membered ring, BOP/DIEA, DMF, 1.0 mM, 25.0 °C) of 39%.
Work on CC(C)C[C@@H]1NC(=O)[C@H](Cc2ccccc2)N(Cc2c(O)cccc2[N+](=O)[O-])C(=O)[C@H](C)NC(=O)[C@H](C)NC(=O)[C@@H]2CCCN2C1=O [Cyclo-[N-(6-nitro-2-hydroxybenzyl)-Phe-Leu-Pro-Ala-Ala]] yielded a ring closure, yield after HPLC (from H-(6-nitro-2-hydroxybenzyl)Phe-Leu-Pro-Ala-Ala-OH, amide bond, 15-membered ring, BOP/DIEA, DMF, 1.0 mM, 25.0 °C) of 44%.
Work on C[C@H]1C(=O)N[C@@H](Cc2ccc(O)cc2)C(=O)N(Cc2c(O)cccc2[N+](=O)[O-])[C@@H](CCCNC(=N)N)C(=O)N[C@@H](Cc2ccccc2)C(=O)N1Cc1c(O)cccc1[N+](=O)[O-] [H-(Hnb)Ala-Tyr-(Hnb)Arg-Phe-OH] yielded a ring closure, yield after HPLC (from H-(Hnb)Ala-Tyr-(Hnb)Arg-Phe-OH, amide bond, 12-membered ring, BOP/DIEA, DMF, 1.0 mM, 25.0 °C) of 53%.
N=C(N)NCCC[C@H]1C(=O)N[C@@H](Cc2ccccc2)C(=O)N(Cc2c(O)cccc2[N+](=O)[O-])CC(=O)N[C@@H](Cc2ccc(O)cc2)C(=O)N1Cc1c(O)cccc1[N+](=O)[O-] [H-(Hnb)Gly-Tyr-(Hnb)Arg-Phe-OH?] showed a ring closure, yield after HPLC (from H-(Hnb)Gly-Tyr-(Hnb)Arg-Phe-OH?, amide bond, 12-membered ring, BOP/DIEA, DMF, 1.18 mM) of 68%.
Compound COc1ccc(CN2CC(=O)NCC(=O)NCC(=O)N(Cc3ccc(OC)cc3O)CC2=O)c(O)c1 [H-Gly-(HMB)Gly-(HMB)Gly-Gly-OH] has a ring closure, yield after HPLC (from H-Gly-(HMB)Gly-(HMB)Gly-Gly-OH, amide bond, 12-membered ring, BOP/DIEA, DMF, 1.0 mM) of 16%.
For O=C1CNC(=O)CNC(=O)CNC(=O)CN1 [H-Gly-Gly-Gly-Gly-OH], the ring closure, yield after HPLC (from H-Gly-Gly-Gly-Gly-OH, amide bond, 12-membered ring, BOP/DIEA, DMF, 1.0 mM) was 1%.
Work on CN1CC(=O)NCC(=O)NCC(=O)NCC1=O [H-Gly-Gly-Gly-MeGly-OH] yielded a ring closure, yield after HPLC (from H-Gly-Gly-Gly-MeGly-OH, amide bond, 12-membered ring, BOP/DIEA, DMF, 1.0 mM) of 8%.
CN1CC(=O)NCC(=O)NCC(=O)NCC1=O [H-Gly-Gly-MeGly-Gly-OH] gave a ring closure, yield after HPLC (from H-Gly-Gly-MeGly-Gly-OH, amide bond, 12-membered ring, BOP/DIEA, DMF, 1.0 mM) of 11%.
In the case of CN1CC(=O)NCC(=O)NCC(=O)N(C)CC1=O [H-Gly-Gly-MeGly-MeGly-OH], the ring closure, yield after HPLC (from H-Gly-Gly-MeGly-MeGly-OH, amide bond, 12-membered ring) is reported as 18%.
For CN1CC(=O)NCC(=O)NCC(=O)NCC1=O [H-Gly-MeGly-Gly-Gly-OH], the ring closure, yield after HPLC (from H-Gly-MeGly-Gly-Gly-OH, amide bond, 12-membered ring, BOP/DIEA, DMF, 1.0 mM) was 1%.
CN1CC(=O)NCC(=O)N(C)CC(=O)NCC1=O [H-Gly-MeGly-Gly-MeGly-OH] gave a ring closure, yield after HPLC (from H-Gly-MeGly-Gly-MeGly-OH, amide bond, 12-membered ring, BOP/DIEA, DMF, 1.0 mM) of 2%.
For CN1CC(=O)NCC(=O)NCC(=O)N(C)CC1=O [H-Gly-MeGly-MeGly-Gly-OH], the ring closure, yield after HPLC (from H-Gly-MeGly-MeGly-Gly-OH, amide bond, 12-membered ring) was 13%.
CN1CC(=O)NCC(=O)N(C)CC(=O)N(C)CC1=O [H-Gly-MeGly-MeGly-MeGly-OH] gave a ring closure, yield after HPLC (from H-Gly-MeGly-MeGly-MeGly-OH, amide bond, 12-membered ring, BOP/DIEA, DMF, 1.0 mM) of 5%.
Compound CC[C@H](C)[C@@H]1NC(=O)[C@H](C)NC(=O)[C@H](CC(C)C)NC(=O)[C@H](CO)NC(=O)[C@H](CC(N)=O)NC(=O)[C@H](Cc2ccccc2)NC(=O)[C@@H]2CCCN2C1=O [cyclo-(Pro-Phe-Asn-Ser-Leu-Ala-Ile)] has a ring closure, yield after HPLC (from H-Pro-Phe-Asn-Ser-Leu-Ala-Ile-OH, amide bond, 21-membered ring, BOP/DIPEA, DMF, -10.0 °C) of 67%.
C[C@@H]1NC(=O)[C@H](Cc2ccccc2)N(Cc2c(O)cccc2[N+](=O)[O-])C(=O)[C@H](CCCNC(=N)N)NC(=O)[C@H](Cc2ccc(O)cc2)N(Cc2c(O)cccc2[N+](=O)[O-])C1=O [cyclo-[(Hnb)Tyr-Arg-(Hnb)Phe-(D)Ala]] gave a ring closure, yield after HPLC [6] of 18%.
For C[C@@H]1NC(=O)[C@H](Cc2ccccc2)N(Cc2c(O)cccc2[N+](=O)[O-])C(=O)[C@H](CCCNC(=N)N)NC(=O)[C@H](Cc2ccc(O)cc2)N(Cc2c(O)cccc2[N+](=O)[O-])C1=O [cyclo-[(Hnb)Tyr-Arg-(Hnb)Phe-Ala]], the ring closure, yield after HPLC [6] was 13%.
With C=CCN1CC[C@]23c4c5ccc(O)c4O[C@H]2C(=O)CC[C@@]3(O)[C@H]1C5 [naloxone, reference compound] the “effect of naloxone on the EJC reduction caused by the cyclic tetrapeptide mixture” value ([2]; naloxone 1 μM added to the tissue bathing solution with the tetrapeptide mixture (1 μM)) was “inhibits this effect; also recorded: reversed”.
Work on Cyclo-(Pro-Phe-Asn-Ser-Leu-Ala-Ile) yielded a ring closure, yield after HPLC [7] of 10%.
Cyclo-(SCH2CH2-Gly-Arg-Pro-Phe-Gly) showed a ring closure, yield after HPLC (other bond, 18-membered ring, BOP/DIEA, DMF, 1.0 mM, -10.0 °C) of 31%.
Cyclo-[Arg-Gly-Asp-Gly-β-Ala] gave a ring closure, yield after HPLC [8] of 9%.
For Cyclo-[DGCatRG], the ring closure, yield after HPLC (amide bond, 16-membered ring, DIEA, DMF, resin, with chain assembly) was 11%.
For Cyclo-[Leu-Asp-Val-Gly-β-Ala], the ring closure, yield after HPLC [8] was 18%.
Work on Cyclo-[Phe-Lys-Trp-Gly-β-Ala] yielded a ring closure, yield after HPLC [8] of 15%.
Work on H-Ala-Phe-Leu-Pro-Ala-O-linker-resin? yielded a ring closure, conversion ([3]; resin) of 0%.
In the case of H-Ala-Phe-Leu-Pro-Ala-OH?, the ring closure, conversion ([3]; BOP/DIEA) is reported as 0%.
Compound cyclo-(Pro-Phe-Asn-Ser-Leu-Ala-Ile) has a ring closure, yield after HPLC [7] of 25%.
For “cyclo-[(Hnb)Tyr-Arg-(Hnb)Phe-(D)Ala] [Product A]”, the stability to heat [4] was “Unstable to heat” and the stability to hydrolysis [5] was “Stable to hydrolysis”.
With “cyclo-[(Hnb)Tyr-Arg-(Hnb)Phe-Ala] [Product B]” the stability to heat [4] was “Stable to heat” and the stability to hydrolysis [5] was “Stable”.
Work on cyclo-[D-G-Amb-R-G] yielded a ring closure, yield after HPLC (amide bond, DIPEA, DMF, resin, with chain assembly) of 49%.
For cyclo-[DAmbGRG], the ring closure, yield after HPLC [9] was 5%.
Compound cyclo-[DGAmbRG] has a ring closure, yield after HPLC [9] of 7.6%.
In the case of “cyclo[Tyr-Arg-Phe-Gly] (SEQ ID NO:42) and cyclo[Tyr-Arg-D-Phe-Gly] (SEQ ID NO:42) [WP 152]”, the “EJC amplitude and frequency” value ([2]; 1 μM in tissue bathing solution, EJCs recorded during 100 minutes (FIG. 10)) is reported as “greatly reduces the EJC amplitude and frequency”, the “average excitatory junction current (EJC) amplitude and frequency” value ([2]; 1 μM, following 20 minutes of exposure, each bar average of at least 60 recordings (FIG. 11)) is reported as “highly significant decrease” and the transmitter release ([2]; FIGS. 10 and 11, mixture of compounds) is reported as “greatly reduces transmitter release”. For the same compound, the “opiate agonism inferred from reversal by naloxone” value ([2]; one or both of the compounds, strongly suggested, not measured directly) was “potent μ-opiate agonists”.
